Laboratory results published in patent US10017481B2, “Conformationally constrained, fully synthetic macrocyclic compounds” (POLYPHOR AG, priority 2012, dated 2018).
Values after ≈ are worked out from the molar mass of the structure shown. Read-outs that look alike come from different tables or passages of the source.

Key:
[1] = molecular target: T1, Human recombinant cathepsin S (Homo sapiens, UniProt P25774); test: Cathepsin S (CatS) enzyme assay; type: biochemical
T1 construct: host or cells: murine myeloma NS0 cells
T1 sequence (P25774 115-331): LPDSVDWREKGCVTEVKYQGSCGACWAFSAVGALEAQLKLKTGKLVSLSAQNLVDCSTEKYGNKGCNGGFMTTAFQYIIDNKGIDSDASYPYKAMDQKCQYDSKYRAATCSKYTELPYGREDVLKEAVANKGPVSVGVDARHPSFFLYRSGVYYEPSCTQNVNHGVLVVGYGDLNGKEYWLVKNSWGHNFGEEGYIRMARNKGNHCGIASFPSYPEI
Procedure: 2. Enzyme Assays for the Peptidase Endothelin Converting Enzyme-1 (ECE-1) and for the Cysteine Protease Cathepsin S (CatS)
The assays were performed according to provider's (Ricerca Biosciences, LLC) protocols which in turn are based on literature procedures (for ECE-1 cf.: O. Valdenaire et al., Eur. J. Biochem. 1999, 264, 341-349; F. D. Russell, A. P. Davenport, Circ. Res. 1999, 84, 891-896; and for CatS: G P Shi et al., J. Biol. Chem. 1992, 267, 7258-62; D Brömme et al., J. Biol. Chem. 1993 268, 4832-4838.).
Human recombinant cathepsin S expressed in a murine myeloma NS0 cells is used. Test compound and/or vehicle is preincubated with 0.1 μg/ml enzyme in modified acetate buffer pH 4.5 for 15 minutes at 25° C. The reaction is initiated by addition of […] Z-Leu-Arg-AMC for another 30 minutes' incubation period. Determination of the amount of AMC formed is read spectrofluorimetrically at 360 nm/465 nm. […]
IC50 values were determined by a non-linear, least squares regression analysis using MathIQ™ (ID Business Solutions Ltd., UK). Inhibition constants K were calculated according to the equation of Cheng and Prusoff (Y. Cheng, W. H. Prusoff, Biochem. Pharmacol. 1973, 22, 3099-3108) using the observed IC50 of the tested compound, the concentration of radioligand employed in the assay, and the historical values for the KD of the ligand. The Hill coefficient (nH), defining the slope of the competitive binding curve, was calculated using MathIQ™.

[2] = system: S. pneumoniae DSM 20566 11A11, 3313A6, 704CG4B21, 82BERG72; test: Antimicrobial assay, broth microdilution MIC, S. pneumoniae strains; type: cell-based; conditions: Streptococcus pneumoniae, DSM20566; strain DSM 20566 (Table 32.7); read-out: MIC S. pneumoniae DSM 20566
Procedure: (§1) The antimicrobial activities of the compounds were determined in 96-well plates (Greiner, polystyrene) by the standard NCCLS broth microdilution method (National Committee for Clinical Laboratory Standards 1993. Methods for dilution antimicrobial susceptibility tests for bacteria that grow aerobically, 3rd ed. Approved standard M7-A6. National Committee for Clinical laboratory standards, Wayne, Pa.) with slight modifications. Inocula of the microorganisms were diluted into Mueller-Hinton II (MH, cation adjusted) broth+0.002% P-80 and compared with a 0.5 McFarland standard to give appr. 10^6 colony forming units (CFU)/mL. Aliquots (50 μl) of inoculate were added to 50 μl of MH broth+0.002% P-80 containing the compounds in serial two-fold dilutions. The following microorganisms were used to determine antibiotic selectivity of the compounds: S. pneumoniae DSM 20566 11A11, 3313A6, 704CG4B21, 82BERG72; S. aureus ATCC 29213, ATCC 25923, DSM 11729, DSM 46320, S. aureus 39. Antimicrobial activities of the compounds were expressed as the minimal inhibitory concentration (MIC) in μg/mL at which no visible growth was observed after 18-20 hours of incubation at 36° C.

[3] = system: S. aureus ATCC 29213, ATCC 25923, DSM 11729, DSM 46320, S. aureus 39; test: Antimicrobial assay, broth microdilution MIC, S. aureus strains; type: cell-based; conditions: Staphylococcus aureus
Procedure: as §1

[4] = molecular target: T2, Oxytocin receptor (OT receptor) (Homo sapiens, UniProt P30559); test: Ca2+ flux (FLIPR) assay, OT receptor, agonist/antagonist mode; type: cell-based; conditions: antagonist mode
T2 construct: expressed in transfected cells; host or cells: Ca2+ optimized hematopoietic cell lines (rat)
T2 sequence (P30559 1-389): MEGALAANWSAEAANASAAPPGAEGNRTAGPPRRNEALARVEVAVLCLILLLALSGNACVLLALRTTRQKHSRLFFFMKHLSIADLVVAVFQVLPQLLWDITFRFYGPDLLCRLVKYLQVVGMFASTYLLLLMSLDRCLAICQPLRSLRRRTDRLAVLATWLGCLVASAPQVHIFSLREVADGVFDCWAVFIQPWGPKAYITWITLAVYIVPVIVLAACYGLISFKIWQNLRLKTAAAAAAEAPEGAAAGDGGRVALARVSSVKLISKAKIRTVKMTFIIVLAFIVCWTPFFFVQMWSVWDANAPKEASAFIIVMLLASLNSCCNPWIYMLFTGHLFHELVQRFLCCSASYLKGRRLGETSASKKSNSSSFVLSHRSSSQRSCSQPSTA
Procedure: Biological and Pharmacological Methods 1. Ca^2+ Flux Assays for the GPCRs Oxytocin Receptor (OT Receptor), Thyrotropin-Releasing Hormone Receptor (TRH Receptor) and Bombesin Receptor Subtype 3 (BB3 Receptor)
Assays were performed on a FLIPR^TETRA fluorometric imaging plate reader (Molecular Devices) with ScreenWorks Version 2 (Molecular Devices) as device operating and data analysis software.
Dose dependent agonist and antagonist activities were determined. Percentage activation and percentage inhibition values were determined.
Percentage activation was determined upon initial addition of the sample compounds followed by 10 minutes' incubation at 25° C. Following compound incubation, reference agonists were added at EC80 to determine percentage inhibition.
Reference agonists were purchased from reputable commercial vendors and prepared according to each ligand's specifications. All handling of ligands were done to ensure proper control throughout the experiments.
Example compounds were weighed on a Microbalance (Mettler MX5) and dissolved in 100% DMSO to a final concentration of 2.5 mM and subsequently diluted into the assay buffer.
The assay buffer was a supplemented HBSS (Hank's Balanced Salt Solution). HBSS was supplemented with 20 mM HEPES (4-(2-hydroxyethyl)-piperazin-1-ethansulfonic acid) and 2.5 mM Probenecid (Sigma P8761).
GPCR assays were performed using Ca^2+ optimized hematopoietic cell lines (rat) with cultures never exceeding 90% confluency. Cells were harvested and seeded (from cultures at less than 90% confluency) at 50000 cells/well for a 96-well plate (12500 cells/well for 384). After seeding, the assay plates were incubated for 45 minutes at room temperature. After room temperature incubation, the assay plates were incubated at 37° C. 5% CO2 for 24 hours prior to assaying.
All GPCR assays were performed using Fluo-8 Ca^2+ dye.
Ca^2+ dye was prepared at 1× dye concentration in GPCR assay buffer. After 24 hours of incubation, cells were washed with GPCR assay buffer, and then Ca^2+-dye (100 μL/well) was added.
The plates were incubated for 90 minutes at 30° C. 5% CO2 prior to FLIPR assay.
Compound plates were prepared to add 50 μL/well during the agonist assay mode. During the FLIPR assay, 50 μL/well from the compound plate was diluted 3-fold into the existing 100 μL/well from the dye loading step. Therefore all compounds were prepared as 3× the final concentration desired in the assay.
After completion of the first single addition assay run, assay plate was removed from the FLIPR Tetra and placed at 25° C. for 7 minutes before antagonist assay.
Using the EC80 values determined during the agonist assay, all pre-incubated sample compound and reference antagonist (if applicable) wells were stimulated at the EC80 of the reference agonist. As reference ligands for these assays their obvious natural ligands oxytocin (OT), thyrotropin-releasing hormone (TRH) and bombesin (6-14) [BN(6-14)] were used.
After the addition of the reference agonist fluorescence was monitored for 180 sec using FLIPR Tetra.
From the FLIPR data, with negative control correction enabled, the maximum statistic for each well was exported and percentage activation relative to Emax control was calculated.

SMILES	inhibition at 10 µM ([1]; 10 μM compound) [%]	IC50 [4] [µM]	inhibition at 10 µM ([4]; 10 μM) [%]	other results
CN(C)CC(=O)N[C@H]1CCCN(C)C(=O)c2cccc(c2)-c2ccccc2OC[C@@H]2C[C@H](NC(=O)Cc3ccc4ccccc4c3)CN2C1=O [Ex. 20, 2-(dimethylamino)-N-[(10S,12S,16S)-20-methyl-12-{[2-(2-naphthyl)acetyl]amino}-15,21-dioxo-8-oxa-14,20-diazatetracyclo[20.3.1.0^2,7.0^10,14]hexacosa-1(26),2,4,6,22,24-hexaen-16-yl]acetamide]	45			IC50 [1]: 14.7 µM
CN1CCC[C@H](NS(=O)(=O)C2CC2)C(=O)N2C[C@@H](NC(=O)Cc3ccc4ccccc4c3)C[C@H]2COc2ccccc2-c2cccc(c2)C1=O [Ex. 21, N-[(10S,12S,16S)-16-[(cyclopropylsulfonyl)amino]-20-methyl-15,21-dioxo-8-oxa-14,20-diazatetracyclo[20.3.1.0^2,7.0^10,14]hexacosa-1(26),2,4,6,22,24-hexaen-12-yl]-2-(2-naphthyl)acetamide]	75			
CC(C)CC(=O)N[C@H]1CCCN(C)C(=O)c2cccc(c2)-c2ccccc2OC[C@@H]2C[C@H](NC(=O)Cc3ccc4ccccc4c3)CN2C1=O [Ex. 24, 3-methyl-N-[(10S,12S,16S)-20-methyl-12-{[2-(2-naphthyl)acetyl]amino}-15,21-dioxo-8-14,20-diazatetracyclo[20.3.1.0^2,7.0^10,14]hexacosa-1(26),2,4,6,22,24-hexaen-16-yl]butanamide]				% Inhibition at 10 μM ([1]; 10 μM compound): 55%
CCCC(=O)N[C@H]1CCCN(C)C(=O)c2cccc(c2)-c2ccccc2OC[C@@H]2C[C@H](NC(=O)Cc3ccc4ccccc4c3)CN2C1=O [Ex. 27, N-[(10S,12S,16S)-20-methyl-12-{[2-(2-naphthyl)acetyl]amino)-15,21-dioxo-8-oxa-14,20-diazatetracyclo[20.3.1.0^2,7.0^10,14]hexacosa-1(26),2,4,6,22,24-hexaen-16-yl]butanamide]	50			
CCCCC(=O)N[C@H]1CCCN(C)C(=O)c2cccc(c2)-c2ccccc2OC[C@@H]2C[C@H](NC(=O)Cc3ccc4ccccc4c3)CN2C1=O [Ex. 28, N-[(10S,12S,16S)-20-methyl-12-{[2-(2-naphthyl)acetyl]amino}-15,21-dioxo-8-oxa-14,20-diazatetracyclo[20.3.1.0^2,7.0^10,14]hexacosa-1(26),2,4,6,22,24-hexaen-16-yl]pentanamide]	57			
CN1CCNC(=O)c2cncc(c2)-c2cccc(c2)OC[C@@H]2C[C@@H](NC(=O)OC(C)(C)C)CN2C(=O)C1 [Ex. 94, tert-butyl N-[(9S,11R)-16-methyl-14,20-dioxo-7-oxa-13,16,19,23-tetraazatetracyclo[19.3.1.1^2,6.0^9,13]hexacosa-1(25),2(26),3,5,21,23-hexaen-11-yl]carbamate]		3	58	MIC [2]: > 16 µg/mL; MIC ([3]; strain ATCC 25923, read-out: MIC S. aureus ATCC 25923): 8 µg/mL (≈ 15.7 µM); MIC ([3]; strain ATCC 29213, read-out: MIC S. aureus ATCC 29213): 4 µg/mL (≈ 7.85 µM); MIC ([3]; strain DSM 11729, read-out: MIC S. aureus DSM 11729): 4 µg/mL (≈ 7.85 µM); MIC ([3]; strain DSM 46320, read-out: MIC S. aureus DSM 46320): 8 µg/mL (≈ 15.7 µM); MIC ([3]; strain S. aureus 39, read-out: MIC S. aureus 39): 8 µg/mL (≈ 15.7 µM)
CN1CCNC(=O)c2cncc(c2)-c2cccc(c2)OC[C@@H]2C[C@@H](NC(=O)Cc3ccc4ccccc4c3)CN2C(=O)C1 [Ex. 96, N-[(9S,11R)-16-methyl-14,20-dioxo-7-oxa-13,16,19,23-tetraazatetracyclo[19.3.1.1^2,6.0^9,13]hexacosa-1(25),2(26),3,5,21,23-hexaen-11-yl]-2-(2-naphthyl) acetamide]		1.2	60	
CC(=O)N[C@@H]1C[C@H]2COc3cccc(c3)-c3cncc(c3)C(=O)NCCN(Cc3cccc(F)c3)CC(=O)N2C1 [Ex. 100, N-[(9S,11R)-16-(3-fluorobenzyl)-14,20-dioxo-7-oxa-13,16,19,23-tetraazatetracyclo[19.3.1.1^2,6.0^9,13]hexacosa-1(25),2(26),3,5,21,23-hexaen-11-yl]acetamide]		4.6	57	
CN1CCNC(=O)c2cncc(c2)-c2cccc(c2)OC[C@@H]2C[C@@H](NC(=O)Cc3cccc4ccccc34)CN2C(=O)C1 [Ex. 101, N-[(9S,11R)-16-methyl-14,20-dioxo-7-oxa-13,16,19,23-tetraazatetracyclo[19.3.1.1^2,6.0^9,13]hexacosa-1(25),2(26),3,5,21,23-hexaen-11-yl]-2-(1-naphthyl) acetamide]		2.6		Antagonist activity % Inhibition at 10 μM ([4]; 10 μM): 69%
CN1CCNC(=O)c2cncc(c2)-c2cccc(c2)OC[C@@H]2C[C@@H](NS(=O)(=O)c3ccccc3)CN2C(=O)C1 [Ex. 103, N-[(9S,11R)-16-methyl-14,20-dioxo-7-oxa-13,16,19,23-tetraazatetracyclo[19.3.1.1^2,6.0^9,13]hexacosa-1(25),2(26),3,5,21,23-hexaen-11-yl]benzenesulfonamide]		6.9	77	
